Source: EP4786487A1, “PEPTIDE” (Peptidream Inc, priority 2023, dated 2025)
Where two headings read alike, the source gives them in different places. Starred links: 1 amine or outer side, 2 acyl side, 3 side chain; linkers in the order of their positions; H or OH if unused. Positions of bridges follow the written chain, without caps; N, C: chain ends. Non-standard residues stand in square brackets, D forms with d. Residues, ends and D or L forms follow the SMILES beside them. *: point of attachment. X13 = O=C(O)c1ccc(-n2cc(C[C@H](N[*:1])C(=O)[*:2])c3ccccc32)cc1; X6 = CS(=O)(=O)c1ccc(-c2ccc(C[C@H](N[*:1])C(=O)[*:2])cc2)cc1; Phe(3-OCH2COOH) = N[C@@H](Cc1cccc(OCC(=O)O)c1)C(=O)O; Trp(6-OH) = N[C@@H](Cc1c[nH]c2cc(O)ccc12)C(=O)O; Phe(4-COOH) = N[C@@H](Cc1ccc(C(=O)O)cc1)C(=O)O; Trp(7-aza) = N[C@@H](Cc1c[nH]c2ncccc12)C(=O)O; Piperazinyl(4-CH2COOH) = O=C(O)CN1CCN(*)CC1; Bip = N[C@@H](Cc1ccc(-c2ccccc2)cc1)C(=O)O; Gly(decyl) = CCCCCCCCCC[C@H](N)C(=O)O; Gly(N(CH2)3COOH) = O=C(O)CCCNCC(=O)O; X1 = CCCCCCC[C@H](N[*:1])C(=O)[*:2]; NMeF = CN[C@@H](Cc1ccccc1)C(=O)O; 3Pal = N[C@@H](Cc1cccnc1)C(=O)O; NMeE = CN[C@@H](CCC(=O)O)C(=O)O; Carboxymethyl = O=C(O)C*; NMeA = CN[C@@H](C)C(=O)O; NEtG = CCNCC(=O)O; Sar = CNCC(=O)O

Legend:
Type in all cases: cell-based
Myostatin [1] = target: T1, Myostatin (Homo sapiens, UniProt O14793); experiment: Reporter gene assay for myostatin signaling in HepG2 cell line, Evaluation Procedure (1), myostatin inhibition; conditions: read-out: IC50 (Luciferase) Myostatin HepG2
T1 construct: active myostatin (also called mature myostatin) is a homodimer consisting of two C-terminal growth factor domains; purchased R&D systems 788-G8/CF
T1 sequence (O14793 267-375): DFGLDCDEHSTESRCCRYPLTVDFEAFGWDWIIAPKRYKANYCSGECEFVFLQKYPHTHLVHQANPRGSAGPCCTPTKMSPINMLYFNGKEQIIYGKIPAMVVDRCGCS
Summary of the method: (§1)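 HepG2 cells transfected with pGL3(CAGA)12-luciferase reporter, serum-starved in 0.1% BSA medium, then stimulated with myostatin or GDF-11 plus 4-fold peptide dilutions (0.006–100 nmol/L for myostatin, 0.12–2000 nmol/L for GDF-11) for 20–24 h at 37 °C. Luminescence read with One-Glo; IC50 calculated.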

Myostatin [2] = experiment: as above; conditions: GDF-11 IC50 versus Myostatin IC50
Summary of the method: as §1

GDF-11 = target: T2, GDF-11 (Homo sapiens, UniProt O95390); experiment: Reporter gene assay for myostatin signaling in HepG2 cell line, Evaluation Procedure (1), GDF-11 inhibition; conditions: read-out: IC50 (Luciferase) GDF-11 HepG2
T2 construct: purchased R&D systems 1958-GD-G8/CF
T2 sequence (O95390 299-407): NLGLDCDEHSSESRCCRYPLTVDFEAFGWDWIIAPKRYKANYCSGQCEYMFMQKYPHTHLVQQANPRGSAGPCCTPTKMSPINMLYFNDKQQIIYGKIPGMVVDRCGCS
Summary of the method: as §1

| SMILES | IC50 (Myostatin [1]; Method A: Myostatin 10 ng/mL) [nM] | Selectivity (Myostatin [2]; Method A) | IC50 (GDF-11; Method A: GDF-11 10 ng/mL) [nM] | also measured |
| --- | --- | --- | --- | --- |
| CCCCCCC[C@@H]1NC(=O)[C@H](Cc2ccccc2)N(C)C(=O)[C@H](CCCNC(=N)N)NC(=O)[C@H](Cc2ccc(C(=O)O)cc2)NC(=O)[C@H](Cc2cccc(OCC(=O)O)c2)NC(=O)[C@H](C)N(C)C(=O)[C@H]([C@@H](C)CC)NC(=O)[C@H](Cc2ccccc2)N(C)C(=O)[C@H](Cc2ccc(O)cc2)NC(=O)[C@H](Cc2c[nH]c3ncccc23)NC(=O)[C@H](C)NC(=O)CN(CCCC(=O)O)C(=O)CSC[C@H](C(=O)O)NC(=O)[C@H](Cc2ccccc2)N(C)C(=O)[C@H](C)N(C)C1=O [Myostatin_99_v148] ({CH2CO}-[Gly(N(CH2)3COOH)]A[Trp(7-aza)]Y[NMeF]I[NMeA][Phe(3-OCH2COOH)][Phe(4-COOH)]R[NMeF][X1][NMeA][NMeF][dC]-OH; thioether N-15) | 1.5 | 293 | 439 | – |
| CCCCCCC[C@@H]1NC(=O)[C@H](Cc2ccccc2)N(C)C(=O)[C@H](CCCNC(=N)N)NC(=O)[C@H](Cc2ccc(C(=O)O)cc2)NC(=O)[C@H](Cc2cccc(OCC(=O)O)c2)NC(=O)CN(C)C(=O)[C@H]([C@@H](C)CC)NC(=O)[C@H](Cc2ccccc2)N(C)C(=O)[C@H](Cc2ccc(O)cc2)NC(=O)[C@H](Cc2c[nH]c3ncccc23)NC(=O)[C@H](C)NC(=O)CN(CCCC(=O)O)C(=O)CSC[C@H](C(=O)O)NC(=O)[C@H](Cc2ccccc2)N(C)C(=O)[C@H](C)N(C)C1=O [Myostatin_99_v166] ({CH2CO}-[Gly(N(CH2)3COOH)]A[Trp(7-aza)]Y[NMeF]I[Sar][Phe(3-OCH2COOH)][Phe(4-COOH)]R[NMeF][X1][NMeA][NMeF][dC]-OH; thioether N-15) | 3.5 | 272 | 951 | – |
| CC[C@H](C)[C@@H]1NC(=O)[C@H](Cc2ccccc2)N(C)C(=O)[C@H](Cc2ccc(O)cc2)NC(=O)[C@H](Cc2c[nH]c3ncccc23)NC(=O)[C@H](C)NC(=O)CN(CCCC(=O)O)C(=O)CSC[C@H](C(=O)O)NC(=O)[C@H](Cc2ccccc2)N(C)C(=O)[C@H](C)N(C)C(=O)[C@H](CC(C)C)NC(=O)[C@H](Cc2ccccc2)N(C)C(=O)[C@H](CCCNC(=N)N)NC(=O)[C@H](Cc2cccnc2)NC(=O)[C@H](Cc2ccccc2)NC(=O)CN(C)C1=O [Myostatin_99_v41] ({CH2CO}-[Gly(N(CH2)3COOH)]A[Trp(7-aza)]Y[NMeF]I[Sar]F[3Pal]R[NMeF]L[NMeA][NMeF][dC]-OH; thioether N-15) | 63.7 | 26 | 1630 | – |
| CC[C@H](C)[C@@H]1NC(=O)[C@H](Cc2ccccc2)N(C)C(=O)[C@H](Cc2ccc(O)cc2)NC(=O)[C@H](Cc2ccc(-c3ccccc3)cc2)NC(=O)[C@H](C)NC(=O)CN(CCCC(=O)O)C(=O)CSC[C@H](C(=O)O)NC(=O)[C@H](Cc2ccccc2)N(C)C(=O)[C@H](C)N(C)C(=O)[C@H](CC(C)C)NC(=O)[C@H](Cc2ccccc2)N(C)C(=O)[C@H](CCCNC(=N)N)NC(=O)[C@H](Cc2ccc(OCC(=O)O)cc2)NC(=O)[C@H](Cc2cccc(OCC(=O)O)c2)NC(=O)[C@H](C)N(C)C1=O [Myostatin_99_v85] ({CH2CO}-[Gly(N(CH2)3COOH)]A[Bip]Y[NMeF]I[NMeA][Phe(3-OCH2COOH)]Y(Carboxymethyl)R[NMeF]L[NMeA][NMeF][dC]-OH; thioether N-15) | 13.5 | 250 | 3370 | – |
| CCCCCCCCCC[C@@H]1NC(=O)[C@H](Cc2ccccc2)N(C)C(=O)[C@H](CCCNC(=N)N)NC(=O)[C@H](Cc2ccc(C(=O)O)cc2)NC(=O)[C@H](Cc2cccc(OCC(=O)O)c2)NC(=O)CN(CC)C(=O)[C@H]([C@@H](C)CC)NC(=O)[C@H](Cc2ccccc2)N(C)C(=O)[C@H](Cc2ccc(O)cc2)NC(=O)[C@H](Cc2c[nH]c3cc(O)ccc23)NC(=O)[C@H](C)NC(=O)[C@H](C)NC(=O)CSC[C@H](C(=O)N2CCN(CC(=O)O)CC2)NC(=O)[C@H](Cc2ccccc2)N(C)C(=O)[C@H](CCC(=O)O)N(C)C1=O [Myostatin_99_v385] ({CH2CO}-AA[Trp(6-OH)]Y[NMeF]I[NEtG][Phe(3-OCH2COOH)][Phe(4-COOH)]R[NMeF][Gly(decyl)][NMeE][NMeF][dC]-{Piperazinyl(4-CH2COOH)}; thioether N-15) | – | – | – | IC50 (Myostatin [1]; Method D: Myostatin 1.5 ng/mL): 0.17 nM; Selectivity (Myostatin [2]; Method D): 251.449; IC50 (GDF-11; Method D: GDF-11 1.5 ng/mL): 42.5 nM |
| CC[C@H](C)[C@@H]1NC(=O)[C@H](Cc2ccccc2)N(C)C(=O)[C@H](Cc2ccc(O)cc2)NC(=O)[C@H](Cc2c[nH]c3ccccc23)NC(=O)[C@H](C)NC(=O)[C@H](C)NC(=O)CSC[C@H](C(=O)O)NC(=O)[C@H](Cc2ccccc2)N(C)C(=O)[C@H](C)N(C)C(=O)[C@H](CC(C)C)NC(=O)[C@H](Cc2ccccc2)N(C)C(=O)[C@H](CCCNC(=N)N)NC(=O)[C@H](Cc2ccc(C(=O)O)cc2)NC(=O)[C@H](Cc2ccc(O)cc2)NC(=O)[C@H](C)N(C)C1=O [Myostatin_99_v191] ({CH2CO}-AAWY[NMeF]I[NMeA]Y[Phe(4-COOH)]R[NMeF]L[NMeA][NMeF][dC]-OH; thioether N-15) | 8.1 | 35 | 283 | – |
| CCCCCCC[C@@H]1NC(=O)[C@H](Cc2ccccc2)N(C)C(=O)[C@H](CCCNC(=N)N)NC(=O)[C@H](Cc2ccc(C(=O)O)cc2)NC(=O)[C@H](Cc2cccc(OCC(=O)O)c2)NC(=O)[C@H](C)N(C)C(=O)[C@H]([C@@H](C)CC)NC(=O)[C@H](Cc2ccccc2)N(C)C(=O)[C@H](Cc2ccc(O)cc2)NC(=O)[C@H](Cc2cn(-c3ccc(C(=O)O)cc3)c3ccccc23)NC(=O)[C@H](C)NC(=O)CN(CCCC(=O)O)C(=O)CSC[C@H](C(=O)O)NC(=O)[C@H](Cc2ccccc2)N(C)C(=O)[C@H](C)N(C)C1=O [Myostatin_99_v372] ({CH2CO}-[Gly(N(CH2)3COOH)]A[X13]Y[NMeF]I[NMeA][Phe(3-OCH2COOH)][Phe(4-COOH)]R[NMeF][X1][NMeA][NMeF][dC]-OH; thioether N-15) | – | – | – | IC50 (Myostatin [1]; Method D: Myostatin 1.5 ng/mL): 0.09 nM; Selectivity (Myostatin [2]; Method D): 76.611; IC50 (GDF-11; Method D: GDF-11 1.5 ng/mL): 7.08 nM |
| CCCCCCCCCC[C@@H]1NC(=O)[C@H](Cc2ccccc2)N(C)C(=O)[C@H](CCCNC(=N)N)NC(=O)[C@H](Cc2ccc(C(=O)O)cc2)NC(=O)[C@H](Cc2cccc(OCC(=O)O)c2)NC(=O)[C@H]2CCCN2C(=O)[C@H]([C@@H](C)CC)NC(=O)[C@H](Cc2ccccc2)N(C)C(=O)[C@H](Cc2ccc(O)cc2)NC(=O)[C@H](Cc2ccc(-c3ccc(S(C)(=O)=O)cc3)cc2)NC(=O)[C@H](C)NC(=O)[C@H](C)NC(=O)CSC[C@H](C(=O)N2CCN(CC(=O)O)CC2)NC(=O)[C@H](Cc2ccccc2)N(C)C(=O)[C@H](CCC(=O)O)N(C)C1=O [Myostatin_99_v343] ({CH2CO}-AA[X6]Y[NMeF]I[dP][Phe(3-OCH2COOH)][Phe(4-COOH)]R[NMeF][Gly(decyl)][NMeE][NMeF][dC]-{Piperazinyl(4-CH2COOH)}; thioether N-15) | – | – | – | IC50 (Myostatin [1]; Method C: Myostatin 1.5 ng/mL): 0.1 nM; Selectivity (Myostatin [2]; Method C): 137.1; IC50 (GDF-11; Method C: GDF-11 1 ng/mL): 14.3 nM |
| CCCCCCC[C@@H]1NC(=O)[C@H](Cc2ccccc2)N(C)C(=O)[C@H](CCCNC(=N)N)NC(=O)[C@H](Cc2ccc(O)cc2)NC(=O)[C@H](Cc2cccc(OCC(=O)O)c2)NC(=O)CN(C)C(=O)[C@H]([C@@H](C)CC)NC(=O)[C@H](Cc2ccccc2)N(C)C(=O)[C@H](Cc2ccc(O)cc2)NC(=O)[C@H](Cc2c[nH]c3ncccc23)NC(=O)[C@@H](CCC(=O)O)NC(=O)[C@H](C)NC(=O)CSC[C@H](C(=O)O)NC(=O)[C@H](Cc2ccccc2)N(C)C(=O)[C@H](C)N(C)C1=O [Myostatin_99_v219] ({CH2CO}-A[dE][Trp(7-aza)]Y[NMeF]I[Sar][Phe(3-OCH2COOH)]YR[NMeF][X1][NMeA][NMeF][dC]-OH; thioether N-15) | 2.7 | 116 | 313 | – |
| CC[C@H](C)[C@@H]1NC(=O)[C@H](Cc2ccccc2)N(C)C(=O)[C@H](Cc2ccc(O)cc2)NC(=O)[C@H](Cc2ccc(-c3ccccc3)cc2)NC(=O)[C@H](C)NC(=O)[C@H](C)NC(=O)CSC[C@H](C(=O)O)NC(=O)[C@H](Cc2ccccc2)N(C)C(=O)[C@H](C)N(C)C(=O)[C@H](CC(C)C)NC(=O)[C@H](Cc2ccccc2)N(C)C(=O)[C@H](CCCNC(=N)N)NC(=O)[C@H](Cc2ccc(OCC(=O)O)cc2)NC(=O)[C@H](Cc2cccc(OCC(=O)O)c2)NC(=O)CN(C)C1=O [Myostatin_99_v108] ({CH2CO}-AA[Bip]Y[NMeF]I[Sar][Phe(3-OCH2COOH)]Y(Carboxymethyl)R[NMeF]L[NMeA][NMeF][dC]-OH; thioether N-15) | 3.6 | 104 | 374 | – |
| CC[C@H](C)[C@@H]1NC(=O)[C@H](Cc2ccccc2)N(C)C(=O)[C@H](Cc2ccc(O)cc2)NC(=O)[C@H](Cc2c[nH]c3ccccc23)NC(=O)[C@H](C)NC(=O)CN(CCCC(=O)O)C(=O)CSC[C@H](C(=O)O)NC(=O)[C@H](Cc2ccccc2)N(C)C(=O)[C@H](C)N(C)C(=O)[C@H](CC(C)C)NC(=O)[C@H](Cc2ccccc2)N(C)C(=O)[C@H](CCCNC(=N)N)NC(=O)[C@H](Cc2ccc(C(=O)O)cc2)NC(=O)[C@H](Cc2cccc(OCC(=O)O)c2)NC(=O)CN(C)C1=O [Myostatin_99_v156] ({CH2CO}-[Gly(N(CH2)3COOH)]AWY[NMeF]I[Sar][Phe(3-OCH2COOH)][Phe(4-COOH)]R[NMeF]L[NMeA][NMeF][dC]-OH; thioether N-15) | 69 | 70 | 4810 | – |
